Results reported in patent publication US9982005B2, “Macrolides and methods of their preparation and use” (President and Fellows of Harvard College, priority 2013, dated 2018).
Values after ≈ are worked out from the molar mass of the structure shown. Where two headings read alike, the source gives them in different places.

What was measured:
Assay type in all cases: cell-based
[1] = tested on: S. aureus (Newman, clinical isolate); test: MIC, S. aureus Newman; settings: Staphylococcus aureus
Text: (§1) We have collected MIC data for a total of 50 novel macrolides that this platform has produced against over 21 unique strains of B. subtilis, E. coli, S. aureus, S. pneumoniae, and H. influenzae, including several multidrug-resistant strains, with a special focus on macrolide resistant mechanisms (vide supra). Azithromycin was included as a control macrolide. CLSI standard procedures for broth dilution MIC determination were used. […] These genotypes can be constitutive or inducible. The finding that C4-epi (unnatural) isomers of the “azaketolide” macrolide class have enhanced activities relative to C4 natural isomers is very exciting.

E. coli (MC4100) = test: MIC, E. coli MC4100; settings: Escherichia coli
Text: as §1

[2] = tested on: SA101 S. aureus ATCC29213; test: broth dilution MIC, S. aureus SA101; settings: Staphylococcus aureus, ATCC29213, SA101 S. aureus ATCC29213; read-out: MIC
Text: as §1

EC107 E. coli ATCC25922 = test: broth dilution MIC, E. coli EC107; settings: Escherichia coli, read-out: MIC
Text: as §1

EC878 E. coli tolC = test: broth dilution MIC, E. coli EC878; settings: Escherichia coli
Text: as §1

EC882 E. coli imp = test: broth dilution MIC, E. coli EC882; settings: Escherichia coli
Text: as §1

[3] = tested on: BS1723 B. subtilis BS168 WT wild type; test: broth dilution MIC, B. subtilis BS1723; settings: Bacillus subtilis
Text: as §1

BS1725 B. subtilis ermC = test: broth dilution MIC, B. subtilis BS1725; settings: Bacillus subtilis
Text: as §1

E. coli strains = test: MIC against E. coli strains (Table M7); settings: Escherichia coli, ATCC25922, E. coli ATCC 25922
Outline: (§2)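 An azithromycin control accompanied the test macrolides, which were assayed by CLSI-standard broth microdilution-type MIC determination. Some strains carry constitutive or inducible macrolide-resistance genotypes.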

S. aureus strains = test: MIC against S. aureus strains (Table M7); settings: for MIC: Staphylococcus aureus
Outline: as §2

S. pneumoniae strains = test: MIC against S. pneumoniae strains (Tables M7, M8); settings: Streptococcus pneumoniae
Text: CLSI standard procedures for broth dilution MIC determination were used. […] These genotypes can be constitutive or inducible.

E. faecalis strains = test: MIC against E. faecalis strains (Table M8); settings: Enterococcus faecalis, E. faecalis 29212
A. baumannii strains = test: MIC against A. baumannii strains (Table M8); settings: for MIC: Acinetobacter baumannii, BAA747, A. baumannii BAA747-1
K. pneumoniae strains = test: MIC against K. pneumoniae strains (Table M8); settings: Klebsiella pneumoniae, K. pneumoniae 10031
H. influenzae strains = test: MIC against H. influenzae strains (Table M8); settings: Haemophilus influenzae
Outline: as §2

[4] = BS1723 B. subtilis BS168 WT wild type, read-out: MIC
[5] = ATCC29213, S. aureus ATCC 29213, read-out: MIC S. aureus (ATCC 29213)
[6] = S. aureus 506, read-out: MIC S. aureus (506)
[7] = S. aureus 1708, read-out: MIC S. aureus (1708)
[8] = USA300, S. aureus USA300, read-out: MIC S. aureus (USA300)
[9] = S. pneumoniae 160, read-out: MIC S. pneumonae (160)
[10] = S. pneumoniae 1509, read-out: MIC S. pneumoniae (1509)
[11] = S. pneumoniae 1533, read-out: MIC S. pneumoniae (1533)
[12] = S. pneumoniae 1537, read-out: MIC S. pneumoniae (1537)
[13] = S. pneumoniae 49619, read-out: MIC S. pneumoniae (49619)
[14] = H. influenzae 49247, read-out: MIC H. influenzae (49247)
[15] = H. influenzae 49766, read-out: MIC H. influenzae (49766)
[16] = S. aureus (Neuman, clinical isolate), round 2

Row | Structure (SMILES) | MIC [2] [µg/mL] | MIC (EC107 E. coli ATCC25922) [µg/mL] | MIC (EC878 E. coli tolC) [µg/mL] | MIC (EC882 E. coli imp) [µg/mL] | MIC (BS1725 B. subtilis ermC; BS1725 B. subtilis ermC (+ery)) [µg/mL] | MIC (E. coli strains) [µg/mL] | MIC (S. aureus strains; [5]) [µg/mL] | MIC (S. aureus strains; [6]) [µg/mL] | MIC (S. aureus strains; [7]) [µg/mL] | MIC (S. aureus strains; [8]) [µg/mL] | MIC (S. pneumoniae strains; [9]) [µg/mL] | MIC (S. pneumoniae strains; [10]) [µg/mL] | MIC (S. pneumoniae strains; [11]) [µg/mL] | MIC (S. pneumoniae strains; [12]) [µg/mL] | MIC (S. pneumoniae strains; [13]) [µg/mL] | MIC (E. faecalis strains) [µg/mL] | MIC (A. baumannii strains) [µg/mL] | MIC (K. pneumoniae strains) [µg/mL] | MIC (H. influenzae strains; [14]) [µg/mL] | MIC (H. influenzae strains; [15]) [µg/mL] | also measured
1 | CC[C@H]1OC(=O)[C@H](C)C(=O)[C@H](C)[C@@H](O[C@@H]2OC(C)CC(N(C)C)C2O)[C@](C)(OC)C[C@@H](C)CN[C@H](C)[C@H]2N(CCCn3cc(-c4ccccn4)nn3)C(=O)O[C@]12C (stereo partly shown) [FSM-40348] | – | – | – | – | – | – | – | – | – | – | – | – | – | – | – | – | – | – | – | – | MIC ([1]; S. aureus (Newman, clinical isolate), round 1): 8 µg/mL (≈ 10 µM); MIC (E. coli (MC4100); round 1, read-out: MIC): > 32 µg/mL
2 | CC[C@H]1OC(=O)[C@H](C)C(=O)[C@H](C)[C@@H](O[C@@H]2OC(C)CC(N(C)C)C2O)[C@](C)(OC)C[C@@H](C)CN[C@H](C)[C@H]2N(CCCCn3cc(-c4nccs4)nn3)C(=O)O[C@]12C (stereo partly shown) [FSM-20708] | 2 (≈ 2.44 µM) | 8 (≈ 9.76 µM) | 1 (≈ 1.22 µM) | 0.0625 (≈ 0.0762 µM) | 16 (≈ 19.5 µM) | 4 (≈ 4.88 µM) | 2 (≈ 2.44 µM) | > 32 | 2 (≈ 2.44 µM) | 2 (≈ 2.44 µM) | 0.125 (≈ 0.152 µM) | 4 (≈ 4.88 µM) | > 32 | > 32 | 0.5 (≈ 0.61 µM) | 0.5 (≈ 0.61 µM) | 16 (≈ 19.5 µM) | 2 (≈ 2.44 µM) | 0.25 (≈ 0.305 µM) | 2 (≈ 2.44 µM) | MIC [3, 4]: 1 µg/mL (≈ 1.22 µM)
3 | CC[C@H]1OC(=O)[C@H](C)C(=O)[C@H](C)[C@@H](O[C@@H]2OC(C)CC(N(C)C)C2O)[C@](C)(OC)C[C@@H](C)CN[C@H](C)[C@H]2N(CCCCn3cc(-c4nc5ccccc5s4)nn3)C(=O)O[C@]12C (stereo partly shown) [FSM-20711] | 2 (≈ 2.3 µM) | 16 (≈ 18.4 µM) | 0.5 (≈ 0.575 µM) | 0.0312 (≈ 0.0359 µM) | 32 (≈ 36.8 µM) | 16 (≈ 18.4 µM) | 4 (≈ 4.6 µM) | > 32 | 4 (≈ 4.6 µM) | 4 (≈ 4.6 µM) | 0.125 (≈ 0.144 µM) | > 32 | > 32 | > 32 | 0.5 (≈ 0.575 µM) | 1 (≈ 1.15 µM) | > 32 | 4 (≈ 4.6 µM) | 1 (≈ 1.15 µM) | 8 (≈ 9.19 µM) | MIC [3, 4]: 2 µg/mL (≈ 2.3 µM)
4 | CC[C@H]1OC(=O)[C@H](C)C(=O)[C@H](C)[C@@H](O[C@@H]2OC(C)CC(N(C)C)C2O)/C(C)=C/CN[C@H](C)[C@H]2N(CCCCn3cc(-c4cccc(N)c4)nn3)C(=O)O[C@]12C (stereo partly shown) [FSM-30624] | – | – | – | – | – | – | – | – | – | – | – | – | – | – | – | – | – | – | – | – | MIC [1, 16]: > 32 µg/mL; MIC (E. coli (MC4100); round 2, read-out: MIC): > 32 µg/mL
5 | CC[C@H]1OC(=O)[C@H](C)C(=O)[C@H](C)[C@@H](O[C@@H]2OC(C)CC(N(C)C)C2O)[C@](C)(OC)C[C@@H](C)CN[C@H](C)[C@H]2N(CCCCn3cc(-c4cccnn4)nn3)C(=O)O[C@]12C (stereo partly shown) [FSM-20710] | 2 (≈ 2.45 µM) | 8 (≈ 9.82 µM) | 1 (≈ 1.23 µM) | 0.0625 (≈ 0.0767 µM) | 32 (≈ 39.3 µM) | 8 (≈ 9.82 µM) | 2 (≈ 2.45 µM) | > 32 | 2 (≈ 2.45 µM) | 4 (≈ 4.91 µM) | 0.5 (≈ 0.613 µM) | 16 (≈ 19.6 µM) | > 32 | > 32 | 0.5 (≈ 0.613 µM) | 0.5 (≈ 0.613 µM) | 16 (≈ 19.6 µM) | 4 (≈ 4.91 µM) | 0.5 (≈ 0.613 µM) | 2 (≈ 2.45 µM) | MIC [3, 4]: 2 µg/mL (≈ 2.45 µM)
6 | CC[C@H]1OC(=O)[C@H](C)[C@@H](O[C@H]2C[C@@](C)(OC)[C@@H](O)[C@H](C)O2)[C@H](C)[C@@H](O[C@@H]2O[C@H](C)C[C@H](N(C)C)[C@H]2O)[C@](C)(O)C[C@@H](C)C(=O)[C@H](C)[C@@H](O)[C@]1(C)O [Erythromycin, erythromycin, reference compound] | 0.5 (≈ 0.681 µM) | > 32 | 2 (≈ 2.73 µM) | 2 (≈ 2.73 µM) | > 32 | > 32 | 0.5 (≈ 0.681 µM) | > 32 | > 32 | > 32 | 2 (≈ 2.73 µM) | > 32 | > 32 | > 32 | ≤ 0.0625 | 2 (≈ 2.73 µM) | 32 (≈ 43.6 µM) | 8 (≈ 10.9 µM) | 2 (≈ 2.73 µM) | 8 (≈ 10.9 µM) | MIC [3]: 0.125 µg/mL (≈ 0.17 µM); MIC (BS1725 B. subtilis ermC; BS1725 B. subtilis ermC (−ery)): > 32 µg/mL; MIC S. aureus (ATCC 29213) (S. aureus strains; S. aureus ATCC 29213): 0.25 µg/mL (≈ 0.341 µM); MIC (S. aureus strains; S. aureus 183, read-out: MIC S. aureus (183)): > 32 µg/mL; MIC A. baumannii (BAA747-1) (A. baumannii strains; A. baumannii BAA747-1): >32 µg/mL
7 | CC[C@H]1OC(=O)[C@H](C)C(=O)[C@H](C)[C@@H](O[C@@H]2OC(C)CC(N(C)C)C2O)/C(C)=C/CN[C@H](C)[C@H]2N(CCCCn3cc(-c4ccccn4)nn3)C(=O)O[C@]12C (stereo partly shown) [FSM-30625] | – | – | – | – | – | – | – | – | – | – | – | – | – | – | – | – | – | – | – | – | MIC [1, 16]: > 32 µg/mL; MIC (E. coli (MC4100); round 2, read-out: MIC): > 32 µg/mL
